How the values were obtained:
[1] = system: rabbit mesenteric arteries; assay: Inhibition of KCl-induced contraction of surface-perfused, extirpated mesenteric arteries; type: cell-based, White bastard rabbits
Experimental: (1) Preparation of surface-perfused, extirpated mesenteric arteries
White bastard rabbits (male, 2-3 kg) were incised along the abdominal median line. […] The strips were ligated with silk yarn at both ends, and the lower end was connected to a stationary rod, whereas the upper end was connected to a […] transducer (SB-1T, product of Nippon Koden Co., Ltd.). Thus, the strips were suspended under an initial tension of 1.5 g. The preparation was kept at 37°±1° C. by means of peristaltic pump (Harvard 1210), while a gas (95% O2 and 5% CO2) was introduced therein. The surface of the preparation was perfused with a Krebs-Henseleit solution whose composition in g/l was NaCl: 6.92, KCl: 0.35, MgSO4.7H2 O: 0.29, CaCl2 : 0.28, KH2 PO4 : 0.16, NaHCO3 : 2.1 and glucose: 2.0 at a flow rate of 10 ml/min. After the preparation was stabilized for 1 to 2 hours, it was used for the experiment. Potassium chloride as a blood vessel-contracting substance was injected into flow of the perfusion solution through a cannula provided just before the preparation so that potassium chloride can have the ultimate concentration of 20 mM. The resulting contraction reaction was recorded on a polygraph (RM-45, product of Nippon Koden Co. Ltd.) in equal scales through the tension transducer. KS-619-1 was dissolved in ethanol to a concentration of 20 mg/ml, and the solution was properly diluted with a nutrient liquor and then continuously perfused from 10 minutes before the application of the contracting substance till the end of contraction reaction.
^(a) Inhibition percentage of contraction was calculated according to […]

[2] = Acute toxicity (LD50) in mice; settings: mouse, in vivo
Experimental: The acute toxicity (LD50) of KS-619-1 in mice is more than 300 mg/kg·p.o. and more than 100 mg/kg·i.p.

[3] = Solubility; type: physicochemical

For CC(=O)Cc1cc2c(c(O)c1C(=O)O)-c1cc3c(c(O)c1CC2)C(=O)c1c(O)cc(O)cc1C3=O [KS-619-1], the inhibition at 0.3 µg/mL ([1]; Oryctolagus cuniculus, KS-619-1 0.3 μg/ml (ultimate concentration), contracting substance potassium chloride 20 mM, read-out: Inhibition percentage of contraction) was 33%, the inhibition at 1 µg/mL ([1]; Oryctolagus cuniculus, KS-619-1 1.0 μg/ml (ultimate concentration), contracting substance potassium chloride 20 mM, read-out: Inhibition percentage of contraction) was 67% and the “inhibition of contraction of rabbit mesenteric arteries (in words)” value ([1]; potassium chloride 20 mM, 0.3 and 1.0 μg/ml) was “inhibited the contraction of rabbit mesenteric arteries, depending on the concentration”. For the same molecule, the LD50 ([2]; ip) was greater than 100 mg/kg, the LD50 ([2]; po) was greater than 300 mg/kg and the Solubility ([3]; in acetic acid) was “readily soluble”. For the same molecule, the Solubility ([3]; in chloroform and water) was “sparingly soluble” and the Solubility ([3]; in methanol, ethanol, acetone, ethyl acetate and butanol) was “soluble”.
